Source: PubChem BioAssay (NCI)
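Dose response: 5 concentrations. Exposure: 48 h. Format: 96-well plates. Endpoint: linear interpolation; highest concentration if not reached. Here, GI50 denotes the concentration required for 50% inhibition of growth. TGI denotes the concentration required for complete inhibition of growth.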

Assays:
Assay in all cases: NCI anticancer screen, dose series, 48 h
[1] = system: SK-MEL-5 melanoma
[2] = system: HT29 colon
[3] = system: KM12 colon
[4] = system: EKVX NSCLC
[5] = system: UACC-257 melanoma
[6] = system: IGROV1 ovarian
[7] = system: HCT-116 colon
[8] = system: U251 CNS
[9] = system: HOP-92 NSCLC
[10] = system: COLO 205 colon
[11] = system: T-47D breast
[12] = system: HCC-2998 colon
[13] = system: SN12C renal
[14] = system: ACHN renal
[15] = system: OVCAR-5 ovarian
[16] = system: NCI-H23 lung
[17] = system: SK-MEL-28 melanoma
[18] = system: SF-295 CNS
[19] = system: A549 NSCLC
[20] = system: SK-MEL-2 melanoma
[21] = system: SF-539 CNS
[22] = system: DU-145 prostate
[23] = system: TK-10 renal
[24] = system: SK-OV-3 ovarian
[25] = system: A498 renal
[26] = system: OVCAR-3 ovarian
[27] = system: OVCAR-4 ovarian
[28] = system: BT-549 breast
[29] = system: MDA-MB-435
[30] = system: MCF7 breast
[31] = system: 786-0 renal
[32] = system: OVCAR-8 ovarian
[33] = system: SF-268 CNS
[34] = system: CAKI-1 renal
[35] = system: LOX IMVI melanoma
[36] = system: RXF 393 renal
[37] = system: SW-620 colon
[38] = system: HCT-15 colon
[39] = system: RPMI-8226 leukemia
[40] = system: NCI-H226 lung
[41] = system: SNB-19 CNS
[42] = system: MDA-MB-231 breast
[43] = system: NCI-H522 lung
[44] = system: MALME-3M melanoma
[45] = system: NCI-H460 lung
[46] = system: UO-31 renal
[47] = system: UACC-62 melanoma
[48] = system: PC-3 prostate
[49] = system: CCRF-CEM leukemia
[50] = system: M14 melanoma
[51] = system: SNB-75 CNS
[52] = system: HOP-62 NSCLC
[53] = system: K-562 leukemia

Cc1ccc(S(=O)(=O)c2ccccc2)cc1
GI50 [1]: 4.01 µM | TGI [1]: > 100 µM | GI50 [2]: 2.7 µM | TGI [2]: 48.9 µM | GI50 [3]: 3.45 µM | TGI [3]: 68.5 µM | GI50 [4]: 3.87 µM | TGI [4]: > 100 µM | GI50 [5]: 42 µM | TGI [5]: > 100 µM | GI50 [6]: 3.97 µM | TGI [6]: > 100 µM | GI50 [7]: 3.86 µM | TGI [7]: > 100 µM | GI50 [8]: 4.32 µM | TGI [8]: > 100 µM | GI50 [9]: 2.62 µM | TGI [9]: 26.2 µM | GI50 [10]: 2.71 µM | TGI [10]: 6.3 µM | GI50 [11]: 6.43 µM | TGI [11]: > 100 µM | GI50 [12]: 6.82 µM | TGI [12]: 64.4 µM | GI50 [13]: 5.37 µM | TGI [13]: > 100 µM | GI50 [14]: 11.7 µM | TGI [14]: > 100 µM | GI50 [15]: 8.44 µM | TGI [15]: > 100 µM | GI50 [16]: 6.14 µM | TGI [16]: > 100 µM | GI50 [17]: 5.65 µM | TGI [17]: > 100 µM | GI50 [18]: 2.55 µM | TGI [18]: 9.03 µM | GI50 [19]: 4.27 µM | TGI [19]: > 100 µM | GI50 [20]: 3.01 µM | TGI [20]: > 100 µM | GI50 [21]: 2.55 µM | TGI [21]: 7 µM | GI50 [22]: 2.78 µM | TGI [22]: 7.9 µM | GI50 [23]: 5.65 µM | TGI [23]: > 100 µM | GI50 [24]: 3.89 µM | TGI [24]: 42.2 µM | GI50 [25]: 2.8 µM | TGI [25]: 29.5 µM | GI50 [26]: 2.32 µM | TGI [26]: 5.02 µM | GI50 [27]: 22.2 µM | TGI [27]: > 100 µM | GI50 [28]: 8.05 µM | TGI [28]: > 100 µM | GI50 [29]: 0.834 µM | TGI [29]: 5.06 µM | GI50 [30]: 4 µM | TGI [30]: > 100 µM | GI50 [31]: 8.08 µM | TGI [31]: > 100 µM | GI50 [32]: 5.77 µM | TGI [32]: > 100 µM | GI50 [33]: 5.82 µM | TGI [33]: > 100 µM | GI50 [34]: 2.39 µM | TGI [34]: > 100 µM | GI50 [35]: 5.05 µM | TGI [35]: > 100 µM | GI50 [36]: 2.62 µM | TGI [36]: 7.54 µM | GI50 [37]: 3.2 µM | TGI [37]: > 100 µM | GI50 [38]: 4.91 µM | TGI [38]: > 100 µM | GI50 [39]: 3.4 µM | TGI [39]: 9.87 µM | GI50 [40]: 16.6 µM | TGI [40]: > 100 µM | GI50 [41]: 4.73 µM | TGI [41]: > 100 µM | GI50 [42]: 3.63 µM | TGI [42]: > 100 µM | GI50 [43]: 1.82 µM | TGI [43]: 4.68 µM | GI50 [44]: 4.76 µM | TGI [44]: > 100 µM | GI50 [45]: 3.26 µM | TGI [45]: 21.1 µM | GI50 [46]: 5.7 µM | TGI [46]: > 100 µM | GI50 [47]: 4.61 µM | TGI [47]: > 100 µM | GI50 [48]: 4.24 µM | TGI [48]: > 100 µM

C=CCN1C(=O)c2cccc3c(N4CCOCC4)ccc(c23)C1=O
GI50 [1]: 0.0274 µM | TGI [1]: 0.127 µM | GI50 [2]: 0.065 µM | TGI [2]: 11.1 µM | GI50 [3]: 0.131 µM | TGI [3]: 60.9 µM | GI50 [4]: 0.0405 µM | TGI [4]: 0.979 µM | GI50 [5]: 0.0685 µM | TGI [5]: 0.642 µM | GI50 [6]: 0.0114 µM | TGI [6]: 0.0915 µM | GI50 [7]: 0.0961 µM | TGI [7]: 0.428 µM | GI50 [8]: 0.0592 µM | TGI [8]: 0.606 µM | TGI [9]: 0.0416 µM | GI50 [11]: 0.0148 µM | TGI [11]: 11.5 µM | GI50 [49]: 0.0452 µM | TGI [49]: > 100 µM | GI50 [13]: 0.0796 µM | TGI [13]: > 100 µM | GI50 [14]: 0.113 µM | TGI [14]: > 100 µM | GI50 [16]: 0.126 µM | TGI [16]: > 100 µM | GI50 [17]: 0.0254 µM | TGI [17]: 0.492 µM | GI50 [19]: 0.102 µM | TGI [19]: 0.595 µM | GI50 [20]: 0.146 µM | TGI [20]: 0.675 µM | GI50 [21]: 0.0293 µM | TGI [21]: 0.376 µM | GI50 [50]: 0.0429 µM | TGI [50]: > 100 µM | GI50 [22]: 0.0638 µM | TGI [22]: 13.6 µM | GI50 [23]: 0.0623 µM | TGI [23]: 0.791 µM | GI50 [24]: 0.0498 µM | TGI [24]: 0.667 µM | GI50 [25]: 0.0138 µM | TGI [25]: 0.0421 µM | GI50 [26]: 0.0118 µM | TGI [26]: 0.142 µM | GI50 [27]: 0.31 µM | TGI [27]: > 100 µM | GI50 [28]: 0.0234 µM | TGI [28]: 0.294 µM | GI50 [29]: 0.0659 µM | TGI [29]: 22.2 µM | GI50 [31]: 0.263 µM | TGI [31]: 32.7 µM | GI50 [32]: 0.229 µM | TGI [32]: > 100 µM | TGI [51]: 40.6 µM | GI50 [33]: 0.104 µM | TGI [33]: 0.548 µM | GI50 [35]: 0.023 µM | TGI [35]: 0.159 µM | GI50 [36]: 0.0162 µM | TGI [36]: 0.128 µM | GI50 [37]: 0.249 µM | TGI [37]: 12.5 µM | GI50 [40]: 0.167 µM | TGI [40]: 1.75 µM | GI50 [52]: 0.101 µM | TGI [52]: > 100 µM | GI50 [53]: 0.202 µM | TGI [53]: > 100 µM | GI50 [43]: 0.206 µM | TGI [43]: 12.3 µM | GI50 [45]: 0.272 µM | TGI [45]: 12.7 µM | GI50 [46]: 0.0134 µM | TGI [46]: 0.322 µM | GI50 [47]: 0.188 µM | TGI [47]: 0.613 µM | GI50 [48]: 0.128 µM | TGI [48]: 0.748 µM
